In patent US10221139B2, “Inhibitors of histone demethylases” (Gilead Sciences, Inc., priority 2012, dated 2019):

What was measured:
Format in all cases: biochemical
UTX (KDM6A) = target: T1, UTX (KDM6A) (Homo sapiens, UniProt O15550); test: Histone lysine demethylase AlphaLISA assay, UTX; settings: substrate BK27M3
T1 construct: 919-1401; host or cells: E. coli
Method: (§1) Example 2: Histone Lysine Demethylase AlphaLISA Assays for IC50 Value Determination
(§2) Assays are performed analogously to the protocol described by Perkin Elmer (Roy et al. Perkin Elmer Technical Note: AlphaLISA #12, April 2011).
(§3) Enzymes are dissolved in enzyme buffer and incubated for 10 min before 5 μL is added to 5 μL 3% DMSO solutions of compounds in enzyme buffer. Incubated for another 10 minutes, before 5 μL substrate solution is added and the reaction mixture is incubated at room temperature for the given period. 10 μL acceptor beads, suspended at given dilutions in Epigenetic Buffer (Perkin Elmer AL008) from stock, are added and the suspension is incubated 60 minutes in the dark at room temperature, before 10 μL suspension (at the given dilutions in Epigenetic Buffer) of streptavidin donor beads (Perkin Elmer 6760002) in Epigenetic Buffer is added. After incubation at room temperature in the dark the plates are read. Reaction conditions are seen in Table 2b.

PLU1 (KDM5B) = target: T2, PLU1 (KDM5B) (Homo sapiens, UniProt Q9UGL1); test: Histone lysine demethylase AlphaLISA assay, PLU1; settings: substrate H3K4M3B
T2 construct: 1-809; host or cells: E. coli
T2 sequence (Q9UGL1 1-809): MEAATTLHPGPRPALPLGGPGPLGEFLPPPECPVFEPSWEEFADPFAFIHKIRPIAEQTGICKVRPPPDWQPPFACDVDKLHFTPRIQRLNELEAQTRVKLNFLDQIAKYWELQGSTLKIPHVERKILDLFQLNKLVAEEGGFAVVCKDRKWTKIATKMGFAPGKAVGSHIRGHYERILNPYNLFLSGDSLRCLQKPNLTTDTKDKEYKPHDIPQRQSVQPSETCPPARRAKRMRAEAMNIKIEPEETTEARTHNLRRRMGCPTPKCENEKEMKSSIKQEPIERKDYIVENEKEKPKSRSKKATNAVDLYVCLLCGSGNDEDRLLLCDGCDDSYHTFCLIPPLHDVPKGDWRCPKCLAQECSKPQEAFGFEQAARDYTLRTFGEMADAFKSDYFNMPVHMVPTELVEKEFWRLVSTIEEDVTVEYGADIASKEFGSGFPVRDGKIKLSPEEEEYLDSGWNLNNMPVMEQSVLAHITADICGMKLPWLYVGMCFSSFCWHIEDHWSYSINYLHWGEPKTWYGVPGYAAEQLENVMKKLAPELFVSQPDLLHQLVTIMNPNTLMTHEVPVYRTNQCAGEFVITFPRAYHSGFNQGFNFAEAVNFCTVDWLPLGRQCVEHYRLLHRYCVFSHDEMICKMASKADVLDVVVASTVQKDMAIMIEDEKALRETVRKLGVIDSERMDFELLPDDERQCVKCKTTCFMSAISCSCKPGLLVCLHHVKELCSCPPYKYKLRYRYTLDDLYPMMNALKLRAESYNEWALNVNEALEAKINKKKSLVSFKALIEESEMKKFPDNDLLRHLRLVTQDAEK
Method: as §1, §2, §3

GASC1 (KDM4C, JMJD2C) = target: T3, GASC1 (KDM4C, JMJD2C) (Homo sapiens, UniProt Q9H3R0); test: Histone lysine demethylase AlphaLISA assay, GASC1; settings: substrate BK9M3
T3 construct: 1-349; host or cells: E. coli
T3 sequence (Q9H3R0 1-349): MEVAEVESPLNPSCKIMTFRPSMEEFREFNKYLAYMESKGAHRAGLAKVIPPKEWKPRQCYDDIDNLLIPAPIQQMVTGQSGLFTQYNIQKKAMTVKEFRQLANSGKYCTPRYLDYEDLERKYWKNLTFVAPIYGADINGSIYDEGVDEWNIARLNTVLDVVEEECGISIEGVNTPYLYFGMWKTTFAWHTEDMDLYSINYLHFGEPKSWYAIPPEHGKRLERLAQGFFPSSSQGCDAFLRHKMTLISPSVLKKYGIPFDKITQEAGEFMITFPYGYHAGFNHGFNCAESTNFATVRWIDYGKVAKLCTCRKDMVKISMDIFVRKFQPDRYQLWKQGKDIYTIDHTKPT
Method: as §1, §2, §3

T1 sequence (O15550 919-1401): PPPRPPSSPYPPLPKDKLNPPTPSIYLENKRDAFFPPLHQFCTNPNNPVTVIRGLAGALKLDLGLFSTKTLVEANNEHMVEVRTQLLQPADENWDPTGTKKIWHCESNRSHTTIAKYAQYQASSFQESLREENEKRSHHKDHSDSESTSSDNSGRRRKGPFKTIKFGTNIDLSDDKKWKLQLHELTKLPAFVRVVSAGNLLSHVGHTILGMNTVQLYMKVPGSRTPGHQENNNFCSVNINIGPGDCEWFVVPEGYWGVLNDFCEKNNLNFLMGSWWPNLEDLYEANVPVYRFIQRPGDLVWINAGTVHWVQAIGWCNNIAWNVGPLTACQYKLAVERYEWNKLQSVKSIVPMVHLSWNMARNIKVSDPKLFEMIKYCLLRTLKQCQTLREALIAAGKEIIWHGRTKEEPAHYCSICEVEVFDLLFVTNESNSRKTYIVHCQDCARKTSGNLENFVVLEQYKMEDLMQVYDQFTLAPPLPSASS

IC50 (UTX (KDM6A)) | IC50 (PLU1 (KDM5B)) | IC50 (GASC1 (KDM4C, JMJD2C)) | Compound
≥ 1000 nM | < 100 nM | < 100 nM | CCN1CCCC1CNC(=O)CNCc1cc(C(=O)O)ccn1 (stereo not shown) [#26, 2-{[({[(1-ethylpyrrolidin-2-yl)methyl]carbamoyl}methyl)amino]methyl}pyridine-4-carboxylic acid]
≥ 1000 nM | < 100 nM | < 100 nM | O=C(O)c1ccnc(CNCC(=O)N2CCCCC2CO)c1 (stereo not shown) [#24, 2-[({2-[2-(hydroxymethyl)piperidin-1-yl]-2-oxoethyl}amino)methyl]pyridine-4-carboxylic acid]
≥ 1000 nM | 100 to 1000 nM | 100 to 1000 nM | CC(C)CCNCc1cc(C(=O)O)ccn1 [#22, 2-{[(3-methylbutyl)amino]methyl}pyridine-4-carboxylic acid]
≥ 1000 nM | < 100 nM | 100 to 1000 nM | O=C(O)c1ccnc(CNC[C@@H](O)CO)c1 [#3, 2-({[(2R)-2,3-dihydroxypropyl]amino}methyl)pyridine-4-carboxylic acid]
≥ 1000 nM | < 100 nM | < 100 nM | O=C(O)c1ccnc(CNCCCNCCOc2ccccc2)c1 [#41, 2-[({3-[(2-phenoxyethyl)amino)propyl}amino)methyl]pyridine-4-carboxylic acid]
≥ 1000 nM | < 100 nM | < 100 nM | O=C(O)c1ccnc(CNCC(=O)N2CCCC(Cc3nc4ccccc4[nH]3)C2)c1 (stereo not shown) [#38, 2-[({2-[3-(1H-1,3-benzodiazol-2-ylmethyl)piperidin-1-yl]-2-oxoethyl}amino)methyl]pyridine-4-carboxylic acid]
≥ 1000 nM | – | < 100 nM | O=C(O)c1ccnc(CNCc2ccco2)c1 [#9, 2-{[(furan-2-ylmethyl)amino]methyl}pyridine-4-carboxylic acid]
≥ 1000 nM | < 100 nM | < 100 nM | O=C(CNCc1cc(C(=O)O)ccn1)NC1CCN(Cc2ccc(-c3ccccc3)o2)CC1 [#32, 2-({[({1-[(5-phenylfuran-2-yl)methyl]piperidin-4-yl}carbamoyl)methyl]amino}methyl)pyridine-4-carboxylic acid]
< 100 nM | 100 to 1000 nM | 100 to 1000 nM | CCCCCCCCCCCCCCCC(=O)OCC(COC(=O)c1ccnc(CNCC(=O)N(CC)CCN(C)C)c1)OC(=O)CCCCCCCCCCCCCCC (stereo not shown) [#69, 1-(2-{[({[2-(dimethylamino)ethyl](ethyl)carbamoyl}methyl)amino]methyl}pyridine-4-carbonyloxy)-3-(hexadecanoyloxy)propan-2-yl hexadecanoate]
100 to 1000 nM | < 100 nM | < 100 nM | O=C(CNCc1cc(C(=O)O)ccn1)NC1CCN(Cc2ccco2)CC1 [#31, 2-{[({[1-(furan-2-ylmethyl)piperidin-4-yl]carbamoyl}methyl)amino]methyl}pyridine-4-carboxylic acid]
≥ 1000 nM | < 100 nM | 100 to 1000 nM | CCN(CCN(C)C)C(=O)CNCc1cc(C(=O)Oc2ccc(OC)cc2)ccn1 [#58, 4-methoxyphenyl 2-{[({[2-(dimethylamino)ethyl](ethyl)carbamoyl}methyl)amino]methyl}pyridine-4-carboxylate]
≥ 1000 nM | < 100 nM | < 100 nM | O=C(O)c1ccnc(CNCC(=O)N2CCCC2Cc2ccccc2)c1 (stereo not shown) [#43, 2-({[2-(2-benzylpyrrolidin-1-yl)-2-oxoethyl]amino}methyl)pyridine-4-carboxylic acid]
≥ 1000 nM | < 100 nM | < 100 nM | CCN(CCC#N)C(=O)CNCc1cc(C(=O)O)ccn1 [#33, 2-[({[(2-cyanoethyl)(ethyl)carbamoyl]methyl}amino)methyl]pyridine-4-carboxylic acid]
≥ 1000 nM | 100 to 1000 nM | ≥ 1000 nM | O=C(O)c1ccnc(CNCc2ccc(-c3ccccc3)o2)c1 [#10, 2-({[(5-phenylfuran-2-yl)methyl]amino}methyl)pyridine-4-carboxylic acid]
< 100 nM | 100 to 1000 nM | 100 to 1000 nM | C=CC(CCNC(=O)C(F)(F)F)OC(=O)c1ccnc(CNCC(=O)N(CC)CCN(C)C)c1 (stereo not shown) [#66, 5-(trifluoroacetamido)pent-1-en-3-yl 2-{[({[2-(dimethylamino)ethyl](ethyl)carbamoyl}methyl)amino]methyl}pyridine-4-carboxylate]
≥ 1000 nM | < 100 nM | < 100 nM | CN(CCCNCc1cc(C(=O)O)ccn1)Cc1ccccc1F [#36, 2-{[(3-{[(2-fluorophenyl)methyl](methyl)amino}propyl)amino]methyl}pyridine-4-carboxylic acid]
≥ 1000 nM | < 100 nM | < 100 nM | C=CCN(CC=C)C(=O)CNCc1cc(C(=O)O)ccn1 [#17, 2-[({[bis(prop-2-en-1-yl)carbamoyl]methyl}amino)methyl]pyridine-4-carboxylic acid]
< 100 nM | 100 to 1000 nM | 100 to 1000 nM | C=CC(CCN(C)C(=O)C(F)(F)F)OC(=O)c1ccnc(CNCC(=O)N(CC)CCN(C)C)c1 (stereo not shown) [#67, 5-(2,2,2-trifluoro-N-methylacetamido)pent-1-en-3-yl 2-{[({[2-(dimethylamino)ethyl](ethyl)carbamoyl}methyl)amino]methyl}pyridine-4-carboxylate]
< 100 nM | < 100 nM | < 100 nM | CCOC(=O)c1ccccc1OC(=O)c1ccnc(CNCC(=O)N(CC)CCN(C)C)c1 [#59, 2-(ethoxycarbonyl)phenyl 2-{[({[2-(dimethylamino)ethyl](ethyl)carbamoyl}methyl)amino]methyl}pyridine-4-carboxylate]
≥ 1000 nM | < 100 nM | ≥ 1000 nM | CCN(CC)CCCCNCc1cc(C(=O)Oc2c(C)cccc2C)ccn1 [#57, 2,6-dimethylphenyl 2-({[4-(diethylamino)butyl]amino}methyl)pyridine-4-carboxylate]
≥ 1000 nM | < 100 nM | < 100 nM | CN(Cc1ccnn1C)C(=O)CNCc1cc(C(=O)O)ccn1 [#27, 2-{[({methyl[(1-methyl-1H-pyrazol-5-yl)methyl]carbamoyl}methyl)amino]methyl}pyridine-4-carboxylic acid]
≥ 1000 nM | < 100 nM | < 100 nM | O=C(CNCc1cc(C(=O)O)ccn1)NC1CCN(CCCc2ccccc2)CC1 [#30, 2-{[({[1-(3-phenylpropyl)piperidin-4-yl]carbamoyl}methyl)amino]methyl}pyridine-4-carboxylic acid]
≥ 1000 nM | 100 to 1000 nM | – | CN(C)CCN(C)Cc1cc(C(=O)O)ccn1 [#6, 2-({[2-(dimethylamino)ethyl](methyl)amino}methyl)pyridine-4-carboxylic acid]

Compound | IC50 (UTX (KDM6A)) | IC50 (PLU1 (KDM5B)) | IC50 (GASC1 (KDM4C, JMJD2C))
2-[({2-[(2S)-1-benzylpyrrolidin-2-yl]ethyl}amino)methyl]pyridine-4-carboxylic acid [#45] | ≥ 1000 nM | < 100 nM | < 100 nM
{4-[(ethoxycarbonyl)amino]phenyl}methyl 2-({[4-(diethylamino)butyl]amino}methyl)pyridine-4-carboxylate [#55] | ≥ 1000 nM | < 100 nM | 100 to 1000 nM
CC(C)(C)OC(=O)N1CC[C@@H](NCc2cc(C(=O)O)ccn2)C1 [#19, 2-({[(3R)-1-[(tert-butoxy)carbonyl]pyrrolidin-3-yl]amino}methyl)pyridine-4-carboxylic acid] | ≥ 1000 nM | ≥ 1000 nM | ≥ 1000 nM
